Results from US20160058743A1, “METHODS FOR TREATING SENSORIMOTOR IMPAIRMENTS ASSOCIATED WITH CERTAIN TYPES OF STROKE USING AMINOPYRIDINES” (ACORDA THERAPEUTICS, INC., priority 2013, published 2016).
Entries after “also recorded” stand apart in the source; their conditions may differ.

System: rats with middle cerebral artery occlusion (MCAO)
Assay: Body swing test after MCAO
Assay type: in vivo, Sprague Dawley rats
Details: for Body Swing Test (% right Swing): Group 3 mean, phase 2
Excerpt: In particular, the MCAO model in Sprague Dawley rats that was utilized in the experiments presented below mimics the conditions in human ischemic stroke. In this model, focal cerebral infarcts were made by permanent occlusion of the proximal right middle cerebral artery (MCA) using a modification of the method of Tamura et al. (No To Shinkei 1986; 38:747-51). Briefly, the temporalis muscle was bisected and reflected through an incision made midway between the eye and the ear canal. The proximal MCA was exposed through a subtemporal craniectomy without removing the zygomatic arch and without transecting the facial nerve.
In this experiment, Sprague Dawley rats were anesthetized, subjected to a surgery resulting in middle cerebral artery occlusion (MCAO), treated with and without 4-aminopyridine and behavioral assessments were performed as described below. Treatment was initiated at 4 weeks after stroke.
Dosing and Treatment: Rats were treated in accordance with the dosing schedule shown in Tables 2A, 2B, 3 and FIG. 2, with each Phase being a two week period of time. A solution of 4-AP was used in this experiment. Dosing was started at 4 weeks after ischemic event. 4-aminopyridine was dissolved in water for injection (WFI, Cellgro) and sterile filtered. Final concentrations of 0.315 mg/mL or 1.0 mg/mL of 4-aminopyridine were delivered at 2 mL/kg by gastric gavage, resulting in final doses of 0.63 mg/kg and 2 mg/kg respectively. Vehicle control treatment was WFI delivered at 2 mL/kg by gastric gavage. This study was divided into three treatment phases (1-3) with each randomized cohort of animals receiving a different dose level during each of the treatment phases. Starting on day 30 after MCAO (Day 30, start of phase 1), the animals received gavage dosing of solutions (2 mL/kg) approximately 12 hours apart, for a total of five doses. The same schedule was repeated with different treatment on Day 44 and Day 58 for phase 2 and 3 of the study, respectively. Animals were not treated during the 10 days between phases (washout period).
Treatment groups: Dosing was started 4 weeks after MCAO surgery. During these 4 weeks, weekly behavioral assessments, as defined below, were performed. Two dose levels of 4-AP plus vehicle control were assessed, with treatment starting at 4 weeks after ischemic event. All dosing was via gastric gavage, volume not to exceed 2 mL/kg. Animals were given the first dose and behavioral assessments were performed starting 60 minutes after dosing. […] Following the final behavioral assessment, drug was withdrawn for 10 or 11 days, behavior was re-assessed, and then animals were re-challenged with a cross-over treatment (Phase 2 of Table 2B) as described in Tables 2A, 2B and 3, followed by the same behavioral testing and dosing regimen. […]

Nc1ccncc1 [4-AP, 4-aminopyridine]
Effect on global body control (body swing test) (Example 2, low (0.63 mg/kg) or high (2 mg/kg) dose b.i.d. p.o., started 4 weeks post MCAO, dose-dependent, reversible): effective to improve global body control; also recorded: significant improvement | Body swing performance (Example 17 dose escalation, groups diverged before treatment initiation): no conclusions can be drawn | Body Swing Test (% right Swing) (D 44 after MCAO): 39.56% | Body Swing Test (% right Swing) (D 46 after MCAO): 40.44%
